Experimental data reported in patent US20190151312A1, “HEPARAN SULFATE BIOSYNTHESIS INHIBITORS FOR THE TREATMENT OF DISEASES” (BioMarin Pharmaceutical Inc., priority 2014, published 2019).

Test system: GM01896 cells (MPS II dermal fibroblasts)
Assay: Assay 1: MPS cellular assay, MPS II (heparan sulfate disaccharide biomarkers by LC-MS)
Assay type: cell-based, human
Conditions: Homo sapiens, Fibroblast, Assay 1 for MPS II, heparan sulfate disaccharide biomarkers (I2a4, I2a6, I2S0 and/or I2S6), read-out: IC50 Range
Procedure, shortened: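 MPS II patient dermal fibroblasts (GM01896) treated with compound at ≤30 μM for 4 to 21 days. Heparan sulfate GAGs isolated by anion exchange, digested with heparinases I-III, aniline-tagged against [13C6]aniline standards and quantified by LC-MS; IC50 from curve fitting. Viability monitored by alamar blue or ATP.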

| SMILES | IC50 [nM] |
| --- | --- |
| Clc1ccc(Nc2cc(-c3ccc4ncn(CCN5CCOCC5)c4c3)nc(N3CCOCC3)n2)cc1 [(4-chlorophenyl){2-morpholin-4-yl-6-[1-(2-morpholin-4-ylethyl)benzimidazol-6-yl]pyrimidin-4-yl}amine] | < 500 |
| Clc1ccc(Nc2cc(-c3ccc4cnn(CCN5CCCC5)c4c3)nc(N3CCOCC3)n2)cc1 [(4-chlorophenyl){2-morpholin-4-yl-6-[1-(2-pyrrolidinylethyl)(1H-indazol-6-yl)]pyrimidin-4-yl}amine] | 1000 to 5000 |
| Clc1ccc(Nc2cc(-c3ccc4c(c3)ncn4CCN3CCCC3)nc(N3CCOCC3)n2)cc1 [(4-chlorophenyl){2-morpholin-4-yl-6-[1-(2-pyrrolidinylethyl)benzimidazol-5-yl]pyrimidin-4-yl}amine] | 1000 to 5000 |
| Clc1ccc(Nc2cc(-c3ccc4ncn(CCN5CCCC5)c4c3)nc(N3CCOCC3)n2)cc1 [(4-chlorophenyl){2-morpholin-4-yl-6-[1-(2-pyrrolidinylethyl)benzimidazol-6-yl]pyrimidin-4-yl}amine] | 500 to 1000 |
| Clc1ccc(Nc2cc(-c3ccc4c(cnn4CCCN4CCOCC4)c3)nc(N3CCOCC3)n2)cc1 [(4-chlorophenyl){2-morpholin-4-yl-6-[1-(3-morpholin-4-ylpropyl)(1H-indazol-5-yl)]pyrimidin-4-yl}amine] | 1000 to 5000 |
| Clc1ccc(Nc2cc(-c3ccc4cnn(CCCN5CCOCC5)c4c3)nc(N3CCOCC3)n2)cc1 [(4-chlorophenyl){2-morpholin-4-yl-6-[1-(3-morpholin-4-ylpropyl)(1H-indazol-6-yl)]pyrimidin-4-yl}amine] | 1000 to 5000 |
| Clc1ccc(Nc2cc(-c3ccc4c(c3)ncn4CCCN3CCOCC3)nc(N3CCOCC3)n2)cc1 [(4-chlorophenyl){2-morpholin-4-yl-6-[1-(3-morpholin-4-ylpropyl)benzimidazol-5-yl]pyrimidin-4-yl}amine] | 1000 to 5000 |
| Clc1ccc(Nc2cc(-c3ccc4ncn(CCCN5CCOCC5)c4c3)nc(N3CCOCC3)n2)cc1 [(4-chlorophenyl){2-morpholin-4-yl-6-[1-(3-morpholin-4-ylpropyl)benzimidazol-6-yl]pyrimidin-4-yl}amine] | 500 to 1000 |
| Clc1ccc(Nc2cc(-c3ccc4cnn(CCCN5CCCC5)c4c3)nc(N3CCOCC3)n2)cc1 [(4-chlorophenyl){2-morpholin-4-yl-6-[1-(3-pyrrolidinylpropyl)(1H-indazol-6-yl)]pyrimidin-4-yl}amine] | 1000 to 5000 |
| Clc1ccc(Nc2cc(-c3ccc4ncn(CCCN5CCCC5)c4c3)nc(N3CCOCC3)n2)cc1 [(4-chlorophenyl){2-morpholin-4-yl-6-[1-(3-pyrrolidinylpropyl)benzimidazol-6-yl]pyrimidin-4-yl}amine] | 500 to 1000 |
| Cn1nc(CCN2CCOCC2)c2ccc(-c3nc(N4CCOCC4)nc(Nc4ccc(Cl)cc4)c3F)cc21 [(4-chlorophenyl){5-fluoro-6-[1-methyl-3-(2-morpholin-4-ylethyl)(1H-indazol-6-yl)]-2-morpholin-4-ylpyrimidin-4-yl}amine] | 1000 to 5000 |
| COCCn1ncc2ccc(-c3cc(Nc4ccc(Cl)cc4)nc(N4CCOCC4)n3)cc21 [(4-chlorophenyl){6-[1-(2-methoxyethyl)(1H-indazol-6-yl)]-2-morpholin-4-ylpyrimidin-4-yl}amine] | 1000 to 5000 |
| COCCn1cnc2ccc(-c3cc(Nc4ccc(Cl)cc4)nc(N4CCOCC4)n3)cc21 [(4-chlorophenyl){6-[1-(2-methoxyethyl)benzimidazol-6-yl]-2-morpholin-4-ylpyrimidin-4-yl}amine] | 500 to 1000 |
| Clc1ccc(Nc2cc(-c3ccc4cnn(CC5CC5)c4c3)nc(N3CCOCC3)n2)cc1 [(4-chlorophenyl){6-[1-(cyclopropylmethyl)(1H-indazol-6-yl)]-2-morpholin-4-ylpyrimidin-4-yl}amine] | 1000 to 5000 |
| Clc1ccc(Nc2cc(-c3ccc4c(c3)ncn4CC3CC3)nc(N3CCOCC3)n2)cc1 [(4-chlorophenyl){6-[1-(cyclopropylmethyl)benzimidazol-5-yl]-2-morpholin-4-ylpyrimidin-4-yl}amine] | 500 to 1000 |
| Clc1ccc(Nc2cc(-c3ccc4ncn(CC5CC5)c4c3)nc(N3CCOCC3)n2)cc1 [(4-chlorophenyl){6-[1-(cyclopropylmethyl)benzimidazol-6-yl]-2-morpholin-4-ylpyrimidin-4-yl}amine] | 500 to 1000 |
| Cn1c(CCN2CCOCC2)nc2ccc(-c3cc(Nc4ccc(Cl)cc4)nc(N4CCOCC4)n3)cc21 [(4-chlorophenyl){6-[1-methyl-2-(2-morpholin-4-ylethyl)benzimidazol-6-yl]-2-morpholin-4-ylpyrimidin-4-yl}amine] | < 500 |
| Cn1c(CCN2CCCC2)nc2ccc(-c3cc(Nc4ccc(Cl)cc4)nc(N4CCOCC4)n3)cc21 [(4-chlorophenyl){6-[1-methyl-2-(2-pyrrolidinylethyl)benzimidazol-6-yl]-2-morpholin-4-ylpyrimidin-4-yl}amine] | < 500 |
| Cn1c(CCCN2CCOCC2)nc2ccc(-c3cc(Nc4ccc(Cl)cc4)nc(N4CCOCC4)n3)cc21 [(4-chlorophenyl){6-[1-methyl-2-(3-morpholin-4-ylpropyl)benzimidazol-6-yl]-2-morpholin-4-ylpyrimidin-4-yl}amine] | 1000 to 5000 |
| Cn1c(CN2CCOCC2)nc2ccc(-c3cc(Nc4ccc(Cl)cc4)nc(N4CCOCC4)n3)cc21 [(4-chlorophenyl){6-[1-methyl-2-(morpholin-4-ylmethyl)benzimidazol-6-yl]-2-morpholin-4-ylpyrimidin-4-yl}amine] | 500 to 1000 |
| Cn1c(CN2CCCC2)nc2ccc(-c3cc(Nc4ccc(Cl)cc4)nc(N4CCOCC4)n3)cc21 [(4-chlorophenyl){6-[1-methyl-2-(pyrrolidinylmethyl)benzimidazol-6-yl]-2-morpholin-4-ylpyrimidin-4-yl}amine] | 1000 to 5000 |
| Cn1nc(CCN2CCOCC2)c2ccc(-c3cc(Nc4ccc(Cl)cc4)nc(N4CCOCC4)n3)cc21 [(4-chlorophenyl){6-[1-methyl-3-(2-morpholin-4-ylethyl)(1H-indazol-6-yl)]-2-morpholin-4-ylpyrimidin-4-yl}amine] | 500 to 1000 |
| Cn1nc(CCN2CCNCC2)c2ccc(-c3cc(Nc4ccc(Cl)cc4)nc(N4CCOCC4)n3)cc21 [(4-chlorophenyl){6-[1-methyl-3-(2-piperazinylethyl)(1H-indazol-6-yl)]-2-morpholin-4-ylpyrimidin-4-yl}amine] | 1000 to 5000 |
| Cn1nc(CCN2CCCC2)c2ccc(-c3cc(Nc4ccc(Cl)cc4)nc(N4CCOCC4)n3)cc21 [(4-chlorophenyl){6-[1-methyl-3-(2-pyrrolidinylethyl)(1H-indazol-6-yl)]-2-morpholin-4-ylpyrimidin-4-yl}amine] | 500 to 1000 |
| Cn1nc(CCCN2CCOCC2)c2ccc(-c3cc(Nc4ccc(Cl)cc4)nc(N4CCOCC4)n3)cc21 [(4-chlorophenyl){6-[1-methyl-3-(3-morpholin-4-ylpropyl)(1H-indazol-6-yl)]-2-morpholin-4-ylpyrimidin-4-yl}amine] | 1000 to 5000 |
| Cn1nc(CCCN2CCCC2)c2ccc(-c3cc(Nc4ccc(Cl)cc4)nc(N4CCOCC4)n3)cc21 [(4-chlorophenyl){6-[1-methyl-3-(3-pyrrolidinylpropyl)(1H-indazol-6-yl)]-2-morpholin-4-ylpyrimidin-4-yl}amine] | 500 to 1000 |
| CN1CCN(c2nn(C)c3cc(-c4cc(Nc5ccc(Cl)cc5)nc(N5CCOCC5)n4)ccc23)CC1 [(4-chlorophenyl){6-[1-methyl-3-(4-methylpiperazinyl)(1H-indazol-6-yl)]-2-morpholin-4-ylpyrimidin-4-yl}amine] | 1000 to 5000 |
